Columns and labels:
Assay type in all cases: in vivo
[1] = test system: green peach aphid (Myzus persicae); assay: Myzus test (spray treatment), Chinese cabbage leaf disks; details: for Mortality in % after 1d: spray
Excerpt: (§1) If the actual insecticide mortality is greater than calculated, then the combination is superadditive in its kill—that is, there is a synergistic effect. In this case the mortality actually observed must be greater than the value for the expected mortality (E) calculated on the basis of the formula given above.
Myzus Test (Spray Treatment)
Solvent: 78 parts by weight of acetone
• 1.5 parts by weight of dimethylformamide Emulsifier: 0.5 part by weight of alkylaryl polyglycol ether
A suitable preparation of active ingredient is prepared by mixing one part by weight of active ingredient with the stated amounts of solvent and emulsifier and diluting the concentrate with emulsifier-containing water to the desired concentration. A suitable suspension of biological agent is prepared by dissolving the cells, spores or viruses in emulsifier-containing water in the desired concentration.
Chinese cabbage (Brassica pekinensis) leaf disks infested by all stages of the green peach aphid (Myzus persicae) are sprayed with an active ingredient and/or biological agent preparation in the desired concentration.
After the desired time, the effect in % is ascertained. Here, 100% means that all of the aphids have been killed; 0% means that no aphids have been killed. The mortality figures determined are used for calculation according to the Colby formula (see sheet 1).

[2] = test system: cotton (Gossypium hirsutum); assay: Seed treatment - cotton emergence test; details: after 2 days
Excerpt: Seed Treatment—Cotton Emergence Test
Seed of cotton (Gossypium hirsutum) is mixed with the desired amount of active ingredient and spores and also water. After drying, 25 seed grains in each case are sown in pots filled with sandy loam.
After 2 days, the effect in % is ascertained on the basis of the cotton plants that have emerged.

[3] = test system: army worm (Spodoptera frugiperda); assay: Spodoptera frugiperda test (spray treatment), maize leaf disks; details: foliar, 48 h, read-out: Mortality in % after 2d
Excerpt: (§2) The anticipated effect of a given combination of two active ingredients may be calculated (cf. Colby, S. R., “Calculating Synergistic and Antagonistic Responses of Herbicide Combinations”, Weeds 15, pages 20-22, 1967) as follows: • if • X is the mortality, expressed in % of the untreated control, when active ingredient A is used in an application rate of m ppm, or m g/ha • Y is the mortality, expressed in % of the untreated control, when active ingredient B is used in an application rate of n ppm, or n g/ha • E is the mortality, expressed in % of the untreated control, when active ingredients A and B are used at application rates of m and n ppm or of m and n g/ha, • then
as §1
Spodoptera frugiperda Test (Spray Treatment)
Solvent: 78.0 parts by weight of acetone
• 1.5 parts by weight of dimethylformamide Emulsifier: 0.5 part by weight of alkylaryl polyglycol ether […]
After the desired time, the effect in % is ascertained. […] The mortality figures determined are used for calculation according to the Colby formula (see sheet 1).

[4] = test system: Meloidogyne incognita; assay: Meloidogyne incognita test (gall formation on lettuce roots)
Excerpt: as §2, §1
Meloidogyne incognita Test
Solvent: 125.0 parts by weight of acetone
A suitable preparation of active ingredient is prepared by mixing one part by weight of active ingredient with the stated amounts of solvent and diluting the concentrate with water to the desired concentration. […]
After the desired time, the nematicidal effect is determined on the basis of gall formation in %. […]

[5] = test system: soya beans (Glycine max); assay: Glycine max - growth promotion in combination with Mycorrhiza; details: 44 days greenhouse, fresh roots
Protocol: Glycine max—Growth Promotion in Combination with Mycorrhiza
Seed of soya beans (Glycine max) is mixed with the desired amount of active ingredient in water. After drying, the seeds are sown in pots filled with sand and perlite (1:1). For inoculation with arbuscular mycorrhiza fungi, the sand-perlite mixture is mixed beforehand with the Mycorrhiza inoculum (AMykor GmbH; Germany) in a concentration of 25 ml/L. The seed is covered with 3 cm of Lecaton (expanded clay).
Over the following 44 days, the plants are cultivated in a greenhouse in good growth conditions. The pots are watered with a nutrient solution (Hoagland and Amon, 1950, half-concentrated solution) with a low phosphate concentration (20 μM).
The untreated control plants are cultured without arbuscular mycorrhiza fungi, but under the same conditions.
The growth-promoting effect on shoot and roots is ascertained via the weight of the fresh roots of the treated plant in comparison to the untreated control.

[6] = Myzus persicae, foliar, 24 h, read-out: Mortality in % after 1d
[7] = 1000 g ai/ha, 100% = all aphids killed

O=S(=O)(CCC(F)=C(F)F)c1ncc(Cl)s1 [Fluensulfone, fluensulfone, reference compound]
Mortality in % after 1d ([1]; 2000 g ai/ha): 0%

O=C(NCCc1ncc(C(F)(F)F)cc1Cl)c1ccccc1C(F)(F)F [Fluopyram, N-{2-[3-chloro-5-(trifluoromethyl)-2-pyridinyl]ethyl}-2-trifluoromethylbenzamide, reference compound]
Emergence in % in comparison to untreated control ([2]; 0.5 g ai/kg seed): 100% | Emergence in % in comparison to untreated control ([2]; 1 g ai/kg seed, untreated = 100): 133% | mortality at 1000 g/ha [3]: 0% | mortality at 0.0005 ppm ([4]; Meloidogyne incognita, 504 h, read-out: Mortality in % after 21d): 0% | mortality at 500 g/ha [1, 6]: 0% | mortality at 1000 g/ha [1, 6]: 0% | Root weight in % in comparison to untreated control ([5]; 0.1 mg/seed grain, seed treatment): 116.90%

arbuscular mycorrhiza fungus
Root weight in % in comparison to untreated control ([5]; Mycorrhiza inoculum 25 ml/L in sand-perlite): 133.21%

Bacillus amyloliquefaciens strain FZB 42
Emergence in % in comparison to untreated control ([2]; 0.075 g ai/kg seed): 158% | Emergence in % in comparison to untreated control ([2]; 0.15 g ai/kg seed): 163% | Mortality in % after 1d ([1]; 2000 g ai/ha): 0%

Metarhizium anisopliae strain F52
Mortality in % after 21d ([4]; 5 ppm, nematicidal effect from gall formation): 0%

Bacillus subtilis strain GB03 [Bacillus subtilis strain GB 03]
Emergence in % in comparison to untreated control ([2]; 0.078 g ai/kg seed): 158%

Bacillus thuringiensis subsp. tenebrionis
Mortality in % after 1d [1, 7]: 0%

Metschnikowia fructicola
Mortality in % after 1d [1, 7]: 0%

Paecilomyces lilacinus strain 251
Mortality in % after 1d ([1]; 5000 g ai/ha): 0%

Cydia pomonella granulosis virus (CpGV)
Mortality in % after 1d [1, 7]: 0%

C/C=C(\C)C(=O)O[C@H]1C[C@@H](OC(C)=O)[C@@]2(C(=O)OC)CO[C@H]3[C@@H](O)[C@@](C)([C@]45O[C@@]4(C)[C@H]4C[C@@H]5O[C@@H]5OC=C[C@@]54O)[C@H]4[C@]1(CO[C@]4(O)C(=O)OC)[C@@H]32 [Azadirachtin, azadirachtin, reference compound]
mortality at 100 g/ha [1, 6]: 0%
